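Following 48 hours of exposure in 96-well plates, responses at five concentrations were used to interpolate endpoints linearly. GI50 marks 50% less growth.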 Activity calls are given as the source filed them. No stated cut-off is given here; in the data, active = GI50 up to about 1.1 µM and inactive = higher.
Tests used:
Experiment in all cases: DTP human tumour cell line panel, 48 h
PC-3 = test system: PC-3
SN12C = test system: SN12C
SR = test system: SR
CAKI-1 = test system: CAKI-1
SK-OV-3 = test system: SK-OV-3
HCT-15 = test system: HCT-15
HL-60 = test system: HL-60
CCRF-CEM = test system: CCRF-CEM
HCT-116 = test system: HCT-116
NCI-H460 = test system: NCI-H460
TK-10 = test system: TK-10
UO-31 = test system: UO-31
UACC-257 = test system: UACC-257
SK-MEL-28 = test system: SK-MEL-28
OVCAR-4 = test system: OVCAR-4
Hs-578T = test system: Hs-578T
SF-268 = test system: SF-268
MDA-MB-435 = test system: MDA-MB-435
T47D = test system: T47D

SMILES	GI50 (PC-3)	GI50 (SN12C)	GI50 (SR)	GI50 (CAKI-1)	GI50 (SK-OV-3)	GI50 (HCT-15)	GI50 (HL-60)	GI50 (CCRF-CEM)	GI50 (HCT-116)	GI50 (NCI-H460)	GI50 (TK-10)	GI50 (UO-31)	GI50 (UACC-257)	GI50 (SK-MEL-28)	GI50 (OVCAR-4)	GI50 (Hs-578T)	GI50 (SF-268)	GI50 (MDA-MB-435)	GI50 (T47D)
O=c1ccc(-c2ccc(-n3ccnc3)cc2)nn1CCO	> 100 µM (inactive)	> 100 µM (inactive)	> 100 µM (inactive)	> 100 µM (inactive)	> 100 µM (inactive)	> 100 µM	> 100 µM (inactive)	> 100 µM (inactive)	> 100 µM (inactive)	> 100 µM (inactive)	> 100 µM (inactive)	> 100 µM (inactive)	> 100 µM (inactive)	> 100 µM (inactive)	> 100 µM (inactive)	> 100 µM (inactive)	> 100 µM (inactive)	> 100 µM (inactive)	
NS(=O)(=O)c1ccc(NS(=O)(=O)c2ccc(NC(=O)N(c3ccccc3)c3ccccc3)cc2)cc1	51.1 µM (inactive)	> 100 µM (inactive)		67 µM (inactive)		> 100 µM		2.7 µM (inactive)	82.4 µM (inactive)	65.6 µM (inactive)	50.4 µM (inactive)	> 100 µM (inactive)	77.4 µM (inactive)	> 100 µM (inactive)	45.2 µM (inactive)	> 100 µM (inactive)	64.1 µM (inactive)	24.9 µM (inactive)	48 µM (inactive)
COc1c2occc2cc2ccc(=O)oc12 [METHOXSALEN]	> 100 µM (inactive)	> 100 µM (inactive)	90.6 µM (inactive)	> 100 µM (inactive)	> 100 µM (inactive)	> 100 µM	90.2 µM (inactive)	> 100 µM (inactive)	> 100 µM (inactive)	62.7 µM (inactive)	> 100 µM (inactive)	> 100 µM (inactive)	> 100 µM (inactive)	> 100 µM (inactive)	> 100 µM (inactive)			> 100 µM (inactive)	> 100 µM (inactive)
O=c1ccc2ccc(O)cc2o1 [UMBELLIFERONE]	> 100 µM (inactive)	> 100 µM (inactive)		> 100 µM (inactive)	> 100 µM (inactive)	> 100 µM	> 100 µM (inactive)	> 100 µM (inactive)	> 100 µM (inactive)		> 100 µM (inactive)	> 100 µM (inactive)	> 100 µM (inactive)	> 100 µM (inactive)	> 100 µM (inactive)	> 100 µM (inactive)	> 100 µM (inactive)	> 100 µM (inactive)	> 100 µM (inactive)
